Results: patent US4946844A, “Optically active benzoquinolizine compounds, process for preparing same, and antibacterial preparation containing same as active ingredient” (Tokyo Tanabe Co., Ltd., priority 1987, dated 1990)

What was measured:
[1] = system: Morganella morganii IFO 3848; assay: In vitro antibacterial activity (minimum inhibitory concentration); format: cell-based; conditions: 37° C.; for Minimum inhibitory concentration: 20 hours, hydrochloride monohydrate
Description: (§1) The in vitro antimicrobial activity of a typical compound in accordance with the present invention (hereinafter referred to as the present compound) was evaluated in terms of minimum inhibitory concentrations for various Gram-positive and Gram-negative bacteria. The Gram-positive bacteria used as test microorganisms included Bacillus subtilis, Staphylococcus aureus, Staphylococcus epidermidis and Streptococcus pyogenes, and the Gram-negative bacteria used as test microorganisms included Escherichia coli, Enterobacter cloacae, Klebsiella pneumoniae, Proteus vulgaris, Pseudomonas aeruginosa, Serratia marcescens, Salmonella enteritidis and Morganella morganii. The minimum inhibitory concentrations (for the test microorganisms cultured at 37° C. for 20 hours) were determined according to the standard method prescribed by the Japanese Chemotherapeutic Society (Journal of the Japanese Chemotherapeutic Society, Vol. 29, No. 1, p. 76, 1981). As the present compound, there was used (+)-9-fluoro-5-methyl-8-(4-methyl-1-piperazinyl)-6,7-dihydro-1,7-dioxo1H,5H-benzo[ij]quinolizine-2-carboxylic acid hydrochloride monohydrate which had been prepared in Example 1 described later. For purposes of comparison, control compounds were evaluated in the same manner as described above. These control compounds comprised the optically active (-)-isomer of the aforesaid compound (which had been prepared in Reference Example described later) and the racemate thereof.

[2] = system: Streptococcus pyogenes ATCC 19615; assay: as above; format: cell-based; conditions: 37° C.; for Minimum inhibitory concentration: 20 hours, hydrochloride monohydrate
Description: as §1

[3] = system: Escherichia coli NIHJ JC-2; assay: as above; format: cell-based; conditions: 37° C.; for Minimum inhibitory concentration: 20 hours, hydrochloride monohydrate
Description: as §1

[4] = system: Klebsiella pneumoniae PCI 602; assay: as above; format: cell-based; conditions: 37° C.; for Minimum inhibitory concentration: 20 hours, hydrochloride monohydrate
Description: as §1

Enterobacter cloacae 963 = assay: as above; format: cell-based; conditions: 37° C.; for Minimum inhibitory concentration: 20 hours, hydrochloride monohydrate
Description: as §1

[5] = system: Staphylococcus aureus FDA 209P JC-1; assay: as above; format: cell-based; conditions: 37° C.; for Minimum inhibitory concentration: 20 hours, hydrochloride monohydrate
Description: as §1

[6] = system: Staphylococcus epidermidis IAM 1296; assay: as above; format: cell-based; conditions: 37° C.; for Minimum inhibitory concentration: 20 hours, hydrochloride monohydrate
Description: as §1

[7] = system: Pseudomonas aeruginosa PAO 1; assay: as above; format: cell-based; conditions: 37° C.; for Minimum inhibitory concentration: 20 hours, hydrochloride monohydrate
Description: as §1

[8] = system: Salmonella enteritidis G 14; assay: as above; format: cell-based; conditions: 37° C.; for Minimum inhibitory concentration: 20 hours, hydrochloride monohydrate
Description: as §1

[9] = system: Bacillus subtilis ATCC 6633; assay: as above; format: cell-based; conditions: 37° C.; for Minimum inhibitory concentration: 20 hours, hydrochloride monohydrate
Description: as §1

[10] = system: Serratia marcescens IAM 1184; assay: as above; format: cell-based; conditions: 37° C.; for Minimum inhibitory concentration: 20 hours, hydrochloride monohydrate
Description: as §1

[11] = system: Proteus vulgaris ATCC 13315; assay: as above; format: cell-based; conditions: 37° C.; for Minimum inhibitory concentration: 20 hours, hydrochloride monohydrate
Description: as §1

Solubility in water = format: physicochemical
Description: The solubilities of the present compound (which had been prepared in Example 1) and its racemate in water were determined.

[12] = system: various Gram-positive and Gram-negative bacteria; assay: In vitro antibacterial activity over all test microorganisms (comparison of potency); format: cell-based; conditions: versus racemate
Description: as §1, with “These control compounds comprised the optically active (-)-isomer of the aforesaid compound (which had been prepared in Reference Example described later) and the racemate thereof.” left out

Compound | solubility (Solubility in water) [mg/mL] | Minimum inhibitory concentration [1] [µg/mL] | Minimum inhibitory concentration [2] [µg/mL] | Minimum inhibitory concentration [3] [µg/mL] | Minimum inhibitory concentration [4] [µg/mL] | Minimum inhibitory concentration (Enterobacter cloacae 963) [µg/mL] | Minimum inhibitory concentration [5] [µg/mL] | Minimum inhibitory concentration [6] [µg/mL] | Minimum inhibitory concentration [7] [µg/mL] | Minimum inhibitory concentration [8] [µg/mL] | Minimum inhibitory concentration [9] [µg/mL] | Minimum inhibitory concentration [10] [µg/mL] | Minimum inhibitory concentration [11] [µg/mL] | further results
CC1CC(=O)c2c(N3CCN(C)CC3)c(F)cc3c(=O)c(C(=O)O)cn1c23.Cl.O (racemic) [Racemate, (±)-9-fluoro-5-methyl-8-(4-methyl-1-piperazinyl)-6,7-dihydro-1,7-dioxo-1H,5H-benzo[ij]quinolizine-2-carboxylic acid hydrochloride monohydrate] | ~7 | – | – | – | – | – | – | – | – | – | – | – | – | MIC ([1]; Morganella morganii, IFO3848, 20 h): 0.1 µg/mL; MIC ([2]; Streptococcus pyogenes, ATCC19615, 20 h): 6.25 µg/mL; MIC ([3]; Escherichia coli, NIHJJC2, 20 h): 0.2 µg/mL; MIC ([4]; Klebsiella pneumoniae, PCI602, 20 h): 0.1 µg/mL; MIC (Enterobacter cloacae 963; Enterobacter cloacae, 963, 20 h): 0.2 µg/mL; MIC ([5]; Staphylococcus aureus, FDA209P, 20 h): 0.39 µg/mL; MIC ([6]; Staphylococcus epidermidis, IAM1296, 20 h): 1.56 µg/mL; MIC ([7]; Pseudomonas aeruginosa, PAO1, 20 h): 1.56 µg/mL; MIC ([8]; Salmonella enterica, ENTERITIDIS, 20 h): 0.78 µg/mL; MIC ([9]; Bacillus subtilis, ATCC6633, 20 h): 0.1 µg/mL; MIC ([10]; Serratia marcescens, IAM1184, 20 h): 1.56 µg/mL; MIC ([11]; Proteus vulgaris, ATCC13315, 20 h): 0.2 µg/mL
CC1CC(=O)c2c(N3CCN(C)CC3)c(F)cc3c(=O)c(C(=O)O)cn1c23.Cl.O (single isomer, unassigned; (-)) [(-)-isomer, (-)-9-fluoro-5-methyl-8-(4-methyl-1-piperazinyl)-6,7-dihydro-1,7-dioxo-1H,5H-benzo[ij]quinolizine-2-carboxylic acid hydrochloride monohydrate] | – | 0.78 | > 100 | 3.13 | 0.78 | 3.13 | 25 | 50 | 12.5 | 1.56 | 1.56 | 3.13 | 0.78 | –
CC1CC(=O)c2c(N3CCN(C)CC3)c(F)cc3c(=O)c(C(=O)O)cn1c23.Cl.O (single isomer, unassigned; (+)) [Present compound, (+)-9-fluoro-5-methyl-8-(4-methyl-1-piperazinyl)-6,7-dihydro-1,7-dioxo-1H,5H-benzo[ij]quinolizine-2-carboxylic acid hydrochloride monohydrate] | ~180 | ≤ 0.025 | 0.78 | 0.10 | ≤ 0.025 | 0.10 | 0.20 | 0.39 | 0.78 | 0.20 | 0.05 | 0.39 | 0.10 | solubility relative to the racemate (Solubility in water; versus racemate): about 25 times; antibacterial activity relative to the racemate (compound [I]) [12]: about twice as potent
